We go through 1 compound from patent US20200360306A1, “USE OF CO-CRYSTALS OF TRAMADOL AND CELECOXIB FOR TREATING PAIN WHILE REDUCING THE ABUSE LIABILITY OF TRAMADOL” (ESTEVE PHARMACEUTICALS, S.A., priority 2019, published 2020).

Several values for one entry are separate records, joined by “and”; a condition that tells them apart may be missing. Identical values can stand only once.

A short description of this data set: Single dose, randomized, open-label, 4-period crossover pharmacokinetic study; plasma tramadol and O-desmethyltramadol (M1) by HPLC-MS/MS; AQ=Cmax/Tmax. The conditions noted are these: healthy subjects; for AQ for tramadol, comparison between treatments (statistical significance): 4-way cross-over study; for O-desmethyltramadol AQ / O-desmethyltramadol Cmax / O-desmethyltramadol Tmax / Tramadol AQ / Tramadol Cmax: 2 × 100 mg co-crystal E-58425 tablets (Treatment 1), oral. As to the method:
The study was a single center, randomized, single dose, open-label, 4-period, 4-sequence, crossover design in healthy male and female subjects.
The products were administered to 36 subjects. The wash-out between the periods for each subject was of 7 calendar days.
Separate blood samples were obtained for analysis of tramadol/M1 metabolite and for analysis of celecoxib (data not shown).
As soon as possible following blood collection, samples were centrifuged at a temperature of 4° C. nominal and at approximately 1500 g for 10 minutes. The plasma obtained was separated into duplicate polypropylene culture tubes. […] The samples were frozen in an upright position and retained in the clinic's freezers at a temperature of −20° C. nominal until sent on dry ice to the bioanalytical facility for assay.
The experimental human plasma samples were assayed for tramadol and M1 metabolite (O-desmethyltramadol) and also for celecoxib (data not shown) using two different validated bioanalytical methods by HPLC with MS/MS detection.
Sample pre-treatment involved the liquid-liquid extraction of tramadol and O-desmethyltramadol from 0.100 mL of human plasma; tramadol-D6 and O-desmethyltramadol-D6 were used as the internal standards (IS1 and IS2 respectively). The compounds were identified and quantified using Hilic HPLC with MS/MS detection over a theoretical concentration range of 2.00 ng/mL to 800.00 ng/mL for tramadol and 0.500 ng/mL to 200.00 ng/mL for O-desmethyltramadol. The concentrations were calculated using peak area ratios and the linearity of the calibration curve was determined using a weighted (1/x^2) linear (y=mx+b) least squares regression analysis for tramadol and for O-desmethyltramadol.
Pharmacokinetic parameters were estimated from the individual plasma concentration—time profile for each subject. The main absorption and disposition parameters were obtained using a non-compartmental approach with a log-linear terminal phase assumption. Maximum observed plasma concentration (Cmax) and the time of maximum observed plasma concentration (Tmax) were obtained directly from the experimental data. The trapezoidal rule was used to estimate the area under the curve (AUC; data not shown) and the terminal phase was estimated by maximizing the coefficient of determination estimated from the log-linear regression model (T1/2; data not shown). The abuse quotient was obtained using the following expression AQ=Cmax/Tmax.

Setting [1] is: Table 3 summary, oral co-crystal E-58425 tablets.

On to `COc1cccc([C@]2(O)CCCC[C@@H]2CN(C)C)c1.Cc1ccc(-c2cc(C(F)(F)F)nn2-c2ccc(S(N)(=O)=O)cc2)cc1.Cl` (racemic) [co-crystal E-58425, co-crystal of (rac)-tramadol.HCl and celecoxib], for which the “AQ for tramadol, comparison between treatments (statistical significance)” value is given as “better (lower) AQ ratio”. Besides, under “listed as Co-crystal E-58425”, the “AQ for tramadol, comparison between treatments (statistical significance)” value is “lower than those obtained for Ultram® and for Ultram® and Celebrex® taken concomitantly”. Moreover, for the setting “Mean, n=33”, the “O-desmethyltramadol AQ” value is recorded as 13.5 ng/(mL · h), the “O-desmethyltramadol Cmax” value came out at 0.0545 µg/mL, the “O-desmethyltramadol Tmax” value stood at 4.4 h and the “Tramadol AQ” value is recorded as 70.5 ng/(mL · h). Also, under “Mean, n=33”, the “Tramadol Cmax” value is 0.2143 µg/mL. Besides, for the setting “Median, n=33”, the “O-desmethyltramadol AQ” value is reported as 13.3 ng/(mL · h), the “O-desmethyltramadol Cmax” value came out at 0.0554 µg/mL, the “Tramadol AQ” value was 70.7 ng/(mL · h) and the “Tramadol Cmax” value came to 0.2075 µg/mL. Under setting [1], the “AQ M1 Mean” value amounted to 13.5 and the “AQ Tramadol Mean” value is 70.5. Besides, where the note is “individual subject values, fasting, plasma”, the “O-desmethyltramadol Tmax” value was 3.00 h and 4.00 h.
